# Read-outs that look alike come from different tables or passages of the source.
# Legend:
# Kunming mice = system: Kunming mice
# Protocol: Sixteen Kunming mice were randomly divided into four groups (equal number of males and females): normal control group and low-, middle-, and high-dose [^188Re]Re-IBA groups. The control group was injected with 0.9% NaCl, and the experimental groups were injected with [^188Re]Re-IBA solution of 3.7 MBq, 18.5 MBq, and 37 MBq, respectively. The body weight and general condition of the mice in each group were measured. After 4 weeks, the blood of the mice in each group was drawn for routine blood examination and liver and kidney function. A pathological examination of important tissue and organs was performed.
# SPSS 26.0 was used for statistical analysis, and the quantitative data were expressed as mean ± standard deviation ( χ¯ ± s). In the toxicity test, repeated-measures analysis of variance was used to compare the body weight of mice in each group. P < 0.05 was considered statistically significant.
# [1] = Biodistribution in normal mice; type: in vivo, Kunming mice
# Protocol: Twenty Kunming mice (originated from Swiss albino mice and introduced into Kunming, China.) were randomly divided into five groups (equal number of males and females). Each group was injected with 3.7 MBq [^188Re]Re-IBA. […] The blood and important tissue and organ samples were collected to measure the radioactivity count by γ counter. Following the time attenuation correction, the percentage injection dose rate per gram of tissue (%ID/g) was calculated at each time point. The result is expressed as mean ± standard deviation ( χ¯ ± s). The in vivo distribution of [^188Re]ReO4^− was studied using the aforementioned method.
# [2] = system: nude mice of bone metastasis model (PC-3, MDA-MB-231, left tibia); conditions: for ROI ratio of model bone/contralateral bone (mean): bone imaging
# Protocol: The nude mice of the bone metastasis model were established by tibial bone marrow injection. The specific methods were as follows: 25 μL of prostate cancer PC-3 and breast cancer MDA-MB-231 cell culture medium were injected into the left tibial bone marrow cavity of healthy male and female nude mice, respectively. At approximately 3-4 weeks after inoculation, they were scanned by microcomputed tomography (CT, SIEMENS InveonTM, Munich, Germany) to determine the condition of the model. […] Bone metastases were initially evaluated by CT and confirmed by pathology after the completion of related studies.
# The nude mice were injected with [^18F]F-sodium fluoride (NaF), [^99mTc]Tc-methylene diphosphonate (MDP), and [^188Re]Re-IBA at the first, second, and fifth days, respectively, for bone imaging. […]/computed tomography (PET/CT) acquisition equipment was SIEMENS InveonTM. Single-photon emission computed tomography/computed tomography (SPECT/CT) acquisition equipment was GE SPECT, pinhole collimator.
smiles,measurement,setting,value
CCCCCN(C)CCC1(O)P(=O)(O)[O][188Re]2([OH])([OH])([O]P1(=O)O)[O]P(=O)(O)C(O)(CCN(C)CCCCC)P(=O)(O)[O]2 (stereo not drawn) [[^188Re]Re-IBA],Pathology of important tissues and organs vs normal control,"Kunming mice; 3.7, 18.5, 37 MBq, 4 weeks",no abnormal pathological changes
same,Routine blood and liver and kidney function examination (mean values),"Kunming mice; 3.7, 18.5, 37 MBq, 4 weeks",within the normal reference range
same,Adverse reactions,"Kunming mice; 3.7, 18.5, 37 MBq, within 4 weeks",no adverse reactions
same,Body weight vs other groups,"Kunming mice; high-dose group 37 MBq, 4 weeks",inhibited the weight gain of mice to a certain extent
same,Body weight vs control group,"Kunming mice; low-dose group 3.7 MBq, 4 weeks",no significant difference in weight
same,Body weight vs control group,"Kunming mice; medium-dose group 18.5 MBq, 4 weeks",no significant difference in weight
same,%ID/g Blood,[1]; 1 h,1.869 ± 0.665 %ID/g
same,%ID/g Brain,[1]; 1 h,0.072 ± 0.023 %ID/g
same,%ID/g Femur,[1]; 1 h,5.989 ± 1.680 %ID/g
same,%ID/g Gonad,[1]; 1 h,0.878 ± 0.426 %ID/g
same,%ID/g Heart,[1]; 1 h,0.488 ± 0.179 %ID/g
same,%ID/g Kidney,[1]; 1 h,5.894 ± 1.648 %ID/g
same,%ID/g Liver,[1]; 1 h,1.100 ± 0.165 %ID/g
same,%ID/g Lung,[1]; 1 h,1.297 ± 0.661 %ID/g
same,%ID/g Muscle,[1]; 1 h,0.550 ± 0.251 %ID/g
same,%ID/g Small intestine,[1]; 1 h,0.898 ± 0.494 %ID/g
same,%ID/g Spleen,[1]; 1 h,0.952 ± 0.336 %ID/g
same,%ID/g Stomach,[1]; 1 h,2.928 ± 0.851 %ID/g
same,%ID/g Thyroid gland,[1]; 1 h,0.594 ± 0.201 %ID/g
same,Femur/heart radioactivity ratio,[1]; 1 h,12.278
same,Femur/liver radioactivity ratio,[1]; 1 h,5.443
same,Femur/muscle radioactivity ratio,[1]; 1 h,10.880
same,%ID/g Blood,[1]; 3 h,0.785 ± 0.220 %ID/g
same,%ID/g Brain,[1]; 3 h,0.056 ± 0.010 %ID/g
same,%ID/g Femur,[1]; 3 h,7.105 ± 1.901 %ID/g
same,%ID/g Gonad,[1]; 3 h,0.611 ± 0.095 %ID/g
same,%ID/g Heart,[1]; 3 h,0.293 ± 0.118 %ID/g
same,%ID/g Kidney,[1]; 3 h,3.140 ± 0.799 %ID/g
same,%ID/g Liver,[1]; 3 h,0.794 ± 0.133 %ID/g
same,%ID/g Lung,[1]; 3 h,0.784 ± 0.196 %ID/g
same,%ID/g Muscle,[1]; 3 h,0.344 ± 0.143 %ID/g
same,%ID/g Small intestine,[1]; 3 h,0.597 ± 0.214 %ID/g
same,%ID/g Spleen,[1]; 3 h,0.475 ± 0.135 %ID/g
same,%ID/g Stomach,[1]; 3 h,2.801 ± 0.560 %ID/g
same,%ID/g Thyroid gland,[1]; 3 h,0.449 ± 0.171 %ID/g
same,Femur/heart radioactivity ratio,[1]; 3 h,24.214
same,Femur/liver radioactivity ratio,[1]; 3 h,8.949
same,Femur/muscle radioactivity ratio,[1]; 3 h,20.664
same,%ID/g Blood,[1]; 6 h,0.496 ± 0.207 %ID/g
same,%ID/g Brain,[1]; 6 h,0.045 ± 0.011 %ID/g
same,%ID/g Femur,[1]; 6 h,7.724 ± 2.292 %ID/g
same,%ID/g Gonad,[1]; 6 h,0.303 ± 0.141 %ID/g
same,%ID/g Heart,[1]; 6 h,0.199 ± 0.049 %ID/g
same,%ID/g Kidney,[1]; 6 h,2.763 ± 0.731 %ID/g
same,%ID/g Liver,[1]; 6 h,0.526 ± 0.087 %ID/g
same,%ID/g Lung,[1]; 6 h,0.506 ± 0.104 %ID/g
same,%ID/g Muscle,[1]; 6 h,0.220 ± 0.124 %ID/g
same,%ID/g Small intestine,[1]; 6 h,0.608 ± 0.192 %ID/g
same,%ID/g Spleen,[1]; 6 h,0.296 ± 0.108 %ID/g
same,%ID/g Stomach,[1]; 6 h,1.741 ± 0.368 %ID/g
same,%ID/g Thyroid gland,[1]; 6 h,0.399 ± 0.082 %ID/g
same,Femur/heart radioactivity ratio,[1]; 6 h,38.835
same,Femur/liver radioactivity ratio,[1]; 6 h,14.694
same,Femur/muscle radioactivity ratio,[1]; 6 h,35.182
same,%ID/g Blood,[1]; 24 h,0.058 ± 0.013 %ID/g
same,%ID/g Brain,[1]; 24 h,0.024 ± 0.013 %ID/g
same,%ID/g Femur,[1]; 24 h,6.177 ± 2.163 %ID/g
same,%ID/g Gonad,[1]; 24 h,0.059 ± 0.032 %ID/g
same,%ID/g Heart,[1]; 24 h,0.045 ± 0.012 %ID/g
same,%ID/g Kidney,[1]; 24 h,0.913 ± 0.173 %ID/g
same,%ID/g Liver,[1]; 24 h,0.122 ± 0.042 %ID/g
same,%ID/g Lung,[1]; 24 h,0.138 ± 0.037 %ID/g
same,%ID/g Muscle,[1]; 24 h,0.051 ± 0.020 %ID/g
same,%ID/g Small intestine,[1]; 24 h,0.078 ± 0.013 %ID/g
same,%ID/g Spleen,[1]; 24 h,0.189 ± 0.052 %ID/g
same,%ID/g Stomach,[1]; 24 h,0.098 ± 0.036 %ID/g
same,%ID/g Thyroid gland,[1]; 24 h,0.115 ± 0.036 %ID/g
same,Femur/heart radioactivity ratio,[1]; 24 h,137.083
same,Femur/liver radioactivity ratio,[1]; 24 h,50.645
same,Femur/muscle radioactivity ratio,[1]; 24 h,121.910
same,%ID/g Blood,[1]; 48 h,0.031 ± 0.009 %ID/g
same,%ID/g Brain,[1]; 48 h,0.009 ± 0.002 %ID/g
same,%ID/g Femur,[1]; 48 h,5.239 ± 2.029 %ID/g
same,%ID/g Gonad,[1]; 48 h,0.029 ± 0.009 %ID/g
same,%ID/g Heart,[1]; 48 h,0.019 ± 0.010 %ID/g
same,%ID/g Kidney,[1]; 48 h,0.399 ± 0.153 %ID/g
same,%ID/g Liver,[1]; 48 h,0.038 ± 0.020 %ID/g
same,%ID/g Lung,[1]; 48 h,0.040 ± 0.020 %ID/g
same,%ID/g Muscle,[1]; 48 h,0.016 ± 0.005 %ID/g
same,%ID/g Small intestine,[1]; 48 h,0.033 ± 0.010 %ID/g
same,%ID/g Spleen,[1]; 48 h,0.046 ± 0.009 %ID/g
same,%ID/g Stomach,[1]; 48 h,0.047 ± 0.019 %ID/g
same,%ID/g Thyroid gland,[1]; 48 h,0.070 ± 0.019 %ID/g
same,Femur/heart radioactivity ratio,[1]; 48 h,270.814
same,Femur/liver radioactivity ratio,[1]; 48 h,136.914
same,Femur/muscle radioactivity ratio,[1]; 48 h,325.483
same,"Bone imaging, uptake in the model side vs control side","[2]; 1–3 h after injection, concentration mainly in surrounding soft tissue",higher than that of the control side
same,ROI ratio of model bone/contralateral bone (mean),[2]; 6 h,1.245
same,ROI ratio of model bone/contralateral bone (mean),[2]; 16 h,1.633
same,ROI ratio of model bone/contralateral bone (mean),[2]; 32 h,1.529

# — paper PMC8896928, “Preparation, Characterization, and Preliminary Imaging Study of [^188Re]Re-Ibandronate as a Novel Theranostic Radiopharmaceutical for Bone Metastasis” (Contrast Media & Molecular Imaging, 2022)
